Laboratory results taken from patent publication US5912405A, “Enhancers such as acetosyringone” (Novo Nordisk A/S, priority 1994, dated 1999).
Blank lines part the entries; values can stand above or below the molecule they belong to.

Tests used:
Format in all cases: biochemical
[1] = target: T1, Coprinus cinereus peroxidase (CiP) (Coprinopsis cinerea, UniProt P28314); assay: Initial bleaching of Chicago Sky Blue 6B (CSB) with Coprinus cinereus peroxidase and enhancers; conditions: 5 μM enhancer, 20 μM H2O2, 30° C.
T1 construct: made in house
T1 sequence (P28314 21-363): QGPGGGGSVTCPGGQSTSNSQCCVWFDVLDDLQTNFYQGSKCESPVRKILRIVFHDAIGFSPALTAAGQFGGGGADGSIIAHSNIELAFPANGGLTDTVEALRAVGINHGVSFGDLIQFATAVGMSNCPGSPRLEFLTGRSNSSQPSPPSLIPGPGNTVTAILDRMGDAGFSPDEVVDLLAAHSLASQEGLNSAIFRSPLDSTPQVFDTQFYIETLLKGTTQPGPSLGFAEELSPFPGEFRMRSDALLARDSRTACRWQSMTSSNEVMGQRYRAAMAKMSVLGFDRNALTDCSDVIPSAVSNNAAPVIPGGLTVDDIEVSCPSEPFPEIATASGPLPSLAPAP
Procedure: (§1) The bleaching rate of Direct Blue 1 (DB1) by purified CiP was determined using the following conditions: […]
(§2) Reagents were mixed in a thermostated cuvette at 30° C. and the bleaching was started by addition of hydrogen peroxide. The bleaching was detected spectrophotometrically at 610 nm, which is the wavelength of the absorption peak of DB1. Bleaching was followed for 1 minute, and the initial reduction in absorbance, --ΔmAbs/minute, was determined.
Bleaching tests were performed in exactly the same way as described in Example 2 except that instead of using DB1 Chigaco Sky Blue (CSB) (obtainable from Aldrich) was used, and the following enhancers were tested: […]

[2] = tested on: laccase obtained from Coprinus friesii; assay: Bleaching of Direct Blue 1 using Coprinus friesii laccase and methylsyringate; conditions: 10 μM methylsyringate, 30° C.
Procedure: (§3) Bleaching of the dye Direct Blue 1 at various pH values was conducted using a laccase obtained from Coprinus comatus, Coprinus friesii, Coprinus plicatilis, Panaeolus papilionaceus or Psathyrella condolleana and methylsyringate.
(§4) After fermentation the culture broths were centrifugated and the supernatants were used in the tests described below.
(§5) The bleaching rate of DB1 was determined using the following conditions: […]
(§6) Reagents were mixed in a 1 ml thermostated cuvette at 30° C. and the bleaching was started by addition of the laccase.
(§7) The bleaching was followed spectrophotometrically at 610 nm, which is the wavelength of the absorption peak of DB1, with readings every 5 sec. for a period of 5 minutes. The initial bleaching rate was determined from the first linear part of the absorbance curve.

[3] = tested on: laccase obtained from Panaeolus papilionaceus; assay: Bleaching of Direct Blue 1 using Panaeolus papilionaceus laccase and methylsyringate; conditions: 10 μM methylsyringate, 30° C.
Procedure: as §3, §4, §5, §6, §7

[4] = tested on: laccase obtained from Psathyrella condolleana; assay: Bleaching of Direct Blue 1 using Psathyrella condolleana laccase and methylsyringate; conditions: 10 μM methylsyringate, 30° C.
Procedure: as §3, §4, §5, §6, §7

[5] = target: T2, Coprinus cinereus laccase (Coprinopsis cinerea, UniProt Q9Y780); assay: Bleaching of Direct Blue 1 using Coprinus cinereus laccase with/without enhancing agents at pH 5.5-8.5; conditions: C. cinereus laccase 1 mg/l, 10 μM enhancing agent, 30° C.
T2 sequence (Q9Y780 19-539): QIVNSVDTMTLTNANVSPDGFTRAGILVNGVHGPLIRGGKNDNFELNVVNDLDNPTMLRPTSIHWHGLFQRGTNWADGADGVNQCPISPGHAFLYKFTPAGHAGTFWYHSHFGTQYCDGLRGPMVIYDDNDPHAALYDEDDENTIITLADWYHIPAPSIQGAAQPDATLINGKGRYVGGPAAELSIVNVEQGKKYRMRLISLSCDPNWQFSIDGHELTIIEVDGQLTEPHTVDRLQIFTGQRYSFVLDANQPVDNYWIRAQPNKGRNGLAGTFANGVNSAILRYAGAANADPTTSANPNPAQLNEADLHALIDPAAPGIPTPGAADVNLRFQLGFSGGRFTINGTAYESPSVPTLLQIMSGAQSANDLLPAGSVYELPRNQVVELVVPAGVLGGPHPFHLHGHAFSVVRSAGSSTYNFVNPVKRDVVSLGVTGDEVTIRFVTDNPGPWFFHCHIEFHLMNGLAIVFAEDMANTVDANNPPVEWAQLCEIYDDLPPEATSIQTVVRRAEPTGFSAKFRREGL
Procedure: Bleaching of the dye Direct Blue 1 at various pH values was conducted using Coprinus cinereus laccase and one of the following enhancing agents:
The laccase was obtained in the following way: Coprinus cinereus (IFO 30116--freely available to the public from Institute of Fermentation, Osaka (IFO) under the indicated deposit number) was inoculated from a PDA agar slant (PDA: 39 g/l potato dextrose agar) into a 100 ml shake flask containing medium A (Medium A is described in Example 3). The culture was cultivated for 6 days at 26° C. and 100 rpm. A 10-liter fermentor containing medium A was inoculated with the 100 ml culture broth. The fermentation ran for 6 days at 26° C. and 100 rpm. The culture broth was filtrated and concentrated by ultrafiltration. Further purification was carried out using hydrophobic interaction chromatography followed by anionic exchange chromatography. This process resultated in a preparation with a laccase activity of 3.6 LACU/ml. The estimated purity was >80% on a protein basis.
The bleaching rate of DB1 was determined using the owing conditions: […]
as §6
The bleaching was followed spectrophotometrically at 610 nm, which is the wavelength of the absorption peak of DB1 with readings every 5 sec. for a period of 5 minutes. The initial bleaching rate was determined from the first linear part of the absorbance curve.

[6] = tested on: laccase obtained from Coprinus plicatilis; assay: Bleaching of Direct Blue 1 using Coprinus plicatilis laccase and methylsyringate; conditions: 10 μM methylsyringate, 30° C.
Procedure: as §3, §4, §5, §6, §7

[7] = tested on: laccase obtained from Coprinus comatus; assay: Bleaching of Direct Blue 1 using Coprinus comatus laccase and methylsyringate; conditions: 10 μM methylsyringate, 30° C.
Procedure: as §3, §4, §5, §6, §7

[8] = target: T1, Coprinus cinereus peroxidase (CiP); assay: Initial bleaching of Direct Blue 1 with Coprinus cinereus peroxidase and enhancers; conditions: 5 μM enhancer, 20 μM H2O2, 30° C.
Procedure: A Coprinus cinereus peroxidase (CiP), obtained as described in WO 9412621 was used.
Dilutions of CiP were made in a solution of 0.15 gram/l of Triton X-405.
as §1, §2

[9] = target: T3, Trametes villosa laccase (Trametes villosa, UniProt Q99044); assay: Bleaching of Direct Blue 1 with Trametes villosa laccase with and without enhancing agents; conditions: 10 μM enhancer, 30° C.
T3 construct: made in house; host or cells: Trametes villosa CBS 678.70 (native producer), purified from culture broth
T3 sequence (Q99044 22-520): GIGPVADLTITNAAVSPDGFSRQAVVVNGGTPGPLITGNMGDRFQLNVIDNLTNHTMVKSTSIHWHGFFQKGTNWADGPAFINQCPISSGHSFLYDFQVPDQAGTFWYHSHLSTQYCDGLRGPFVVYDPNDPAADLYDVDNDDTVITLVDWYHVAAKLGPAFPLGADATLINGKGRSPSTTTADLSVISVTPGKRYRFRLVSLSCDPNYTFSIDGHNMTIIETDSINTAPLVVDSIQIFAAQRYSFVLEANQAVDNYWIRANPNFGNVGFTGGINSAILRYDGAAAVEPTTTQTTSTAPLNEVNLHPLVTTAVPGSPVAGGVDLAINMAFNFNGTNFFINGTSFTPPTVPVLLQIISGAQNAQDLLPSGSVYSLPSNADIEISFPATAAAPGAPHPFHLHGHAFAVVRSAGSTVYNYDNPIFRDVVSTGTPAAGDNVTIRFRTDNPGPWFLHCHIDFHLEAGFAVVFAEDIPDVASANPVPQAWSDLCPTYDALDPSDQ
Procedure: Laccase obtained from Trametes villosa: 800 ml culture broth of Trametes villosa, CBS 678.70, was filtered with filter aid to give a clear filtrate, which was concentrated and washed by ultrafiltration on a membrane with a cut-off of 6-8 kDa. One ml samples of concentrated preparation was applied onto a Q-Sepharose HP column (Pharmacia, Sweden) equilibrated with 0.1 M fosfate pH 7, and the laccase was eluted with a flat NaCl gradient around 0.25 M. Fractions with laccase activity from 10 runs were pooled and concentrated by ultrafiltration to an activity of 500 LACU/ml.
The following conditions were used: […]
Reagents were mixed in a 1 cm thermostated cuvette at 30° C. and the bleaching was started by addition of enzyme.
The bleaching was detected spectrophotometrically at 610 nm, which is the absorption peak of DB1. After 5 sec. bleaching was followed for 4 minutes.
Bleaching of Direct Blue 1 with Trametes villosa laccase, obtained as described above, at pH 5.5 (1.6 mg/l) and pH 7.0 (16 mg/l): […]

Compound: CCOC(=O)C=Cc1cc(OC)c(O)c(OC)c1 [ethyl 3-(4-hydroxy-3,5-dimethoxyphenyl)acrylate]
Initial Bleaching of CSB with CiP ([1]; pH 8.5, 0.08 mg/l CiP): 48 -ΔmAbs/minute
Initial Bleaching of CSB with CiP ([1]; pH 10.5, 0.16 mg/l CiP): 48 -ΔmAbs/minute

Compound: CCCCCCOC(=O)c1cc(OC)c(O)c(OC)c1 [hexylsyringate]
Initial Bleaching of CSB with CiP ([1]; pH 8.5, 0.08 mg/l CiP): 276 -ΔmAbs/minute
Initial Bleaching of CSB with CiP ([1]; pH 10.5, 0.16 mg/l CiP): 36 -ΔmAbs/minute

Compound: COC(=O)c1cc(OC)c(O)c(OC)c1 [methylsyringate]
Initial bleaching rate of DB1 ([2]; C. friesii laccase 4 LACU/l, pH 5.5): 40 -ΔmAbs/minute
Initial bleaching rate of DB1 ([2]; C. friesii laccase 4 LACU/l, pH 7.0): 55 -ΔmAbs/minute
Initial bleaching rate of DB1 ([2]; C. friesii laccase 20 LACU/l, pH 8.5): 61 -ΔmAbs/minute
Initial Bleaching of CSB with CiP ([1]; pH 8.5, 0.08 mg/l CiP): 211 -ΔmAbs/minute
Initial Bleaching of CSB with CiP ([1]; pH 10.5, 0.16 mg/l CiP): 42 -ΔmAbs/minute
Initial bleaching rate of DB1 ([3]; Pan. papilionaceus laccase 4 LACU/l, pH 5.5): 16 -ΔmAbs/minute
Initial bleaching rate of DB1 ([3]; Pan. papilionaceus laccase 4 LACU/l, pH 7.0): 19 -ΔmAbs/minute
Initial bleaching rate of DB1 ([3]; Pan. papilionaceus laccase 20 LACU/l, pH 8.5): 18 -ΔmAbs/minute
Initial bleaching rate of DB1 ([4]; Ps. condolleana laccase 4 LACU/l, pH 5.5): 45 -ΔmAbs/minute
Initial bleaching rate of DB1 ([4]; Ps. condolleana laccase 4 LACU/l, pH 7.0): 54 -ΔmAbs/minute
Initial bleaching rate of DB1 ([4]; Ps. condolleana laccase 20 LACU/l, pH 8.5): 43 -ΔmAbs/minute
Initial bleaching rate of DB1 ([5]; pH 5.5): 20 -ΔmAbs/minute
Initial bleaching rate of DB1 ([5]; pH 7.0): 94 -ΔmAbs/minute
Initial bleaching rate of DB1 ([5]; pH 8.5): 57 -ΔmAbs/minute
Initial bleaching rate of DB1 ([6]; C. plicalitis laccase 4 LACU/l, pH 5.5): 42 -ΔmAbs/minute
Initial bleaching rate of DB1 ([6]; C. plicalitis laccase 4 LACU/l, pH 7.0): 39 -ΔmAbs/minute
Initial bleaching rate of DB1 ([6]; C. plicalitis laccase 20 LACU/l, pH 8.5): 14 -ΔmAbs/minute
Initial bleaching rate of DB1 ([7]; C. comatus laccase 4 LACU/l, pH 5.5): 33 -ΔmAbs/minute
Initial bleaching rate of DB1 ([7]; C. comatus laccase 4 LACU/l, pH 7.0): 23 -ΔmAbs/minute
Initial bleaching rate of DB1 ([7]; C. comatus laccase 20 LACU/l, pH 8.5): 2 -ΔmAbs/minute
Initial Bleaching of Direct Blue 1 with CiP ([8]; pH 8.5, 0.08 mg/l CiP): 245 -ΔmAbs/minute
Initial Bleaching of Direct Blue 1 with CiP ([8]; pH 10.5, 0.16 mg/l CiP): 8 -ΔmAbs/minute

Compound: COc1cc(C=O)cc(OC)c1O [syringaldehyde]
DB1 bleaching in 4 minutes ([9]; pH 5.5, Trametes villosa laccase 1.6 mg/l): 438 -ΔmAbs/4 min
DB1 bleaching in 4 minutes ([9]; pH 7.0, Trametes villosa laccase 16 mg/l): 112 -ΔmAbs/4 min
Initial bleaching rate of DB1 ([5]; pH 5.5): 29 -ΔmAbs/minute
Initial bleaching rate of DB1 ([5]; pH 7.0): 79 -ΔmAbs/minute
Initial bleaching rate of DB1 ([5]; pH 8.5): 28 -ΔmAbs/minute
Initial Bleaching of Direct Blue 1 with CiP ([8]; pH 8.5, 0.08 mg/l CiP): 151 -ΔmAbs/minute
Initial Bleaching of Direct Blue 1 with CiP ([8]; pH 10.5, 0.16 mg/l CiP): 4 -ΔmAbs/minute

The next lines start with the values.

Initial Bleaching of CSB with CiP ([1]; pH 8.5, 0.08 mg/l CiP): 228 -ΔmAbs/minute
Initial Bleaching of CSB with CiP ([1]; pH 10.5, 0.16 mg/l CiP): 48 -ΔmAbs/minute
Compound: CCCCOC(=O)c1cc(OC)c(O)c(OC)c1 [butylsyringate]

Initial Bleaching of CSB with CiP ([1]; pH 8.5, 0.08 mg/l CiP): 240 -ΔmAbs/minute
Initial Bleaching of CSB with CiP ([1]; pH 10.5, 0.16 mg/l CiP): 52 -ΔmAbs/minute
Compound: CCOC(=O)c1cc(OC)c(O)c(OC)c1 [ethylsyringate]

Initial Bleaching of CSB with CiP ([1]; pH 8.5, 0.08 mg/l CiP): 192 -ΔmAbs/minute
Initial Bleaching of CSB with CiP ([1]; pH 10.5, 0.16 mg/l CiP): 15 -ΔmAbs/minute
Compound: CCCCCCCCOC(=O)c1cc(OC)c(O)c(OC)c1 [octylsyringate]

Initial Bleaching of CSB with CiP ([1]; pH 8.5, 0.08 mg/l CiP): 228 -ΔmAbs/minute
Initial Bleaching of CSB with CiP ([1]; pH 10.5, 0.16 mg/l CiP): 60 -ΔmAbs/minute
Compound: CCCOC(=O)c1cc(OC)c(O)c(OC)c1 [propylsyringate]
